Reference: patent US6369103B1, “Method for preventing or reducing risk of onset of cardiovascular events employing an HMG CoA reductase inhibitor” (Bristol-Myers Squibb Company, priority 1994, dated 2002)
Like-named read-outs stand apart in the source and are kept apart here.

Experiments:
[1] = tested on: patients with primary hypercholesterolemia and ≧2 additional risk factors for coronary artery disease; assay: Multinational randomized double-blind placebo-controlled trial: effects on plasma lipids; format: in vivo, human; details: for LDL cholesterol, Mean ± SEM: calculated (Friedewald)
Method: J. Cardiology Vol. 72, Nov. 1, 1993, 1031-1036. […] Lipid analyses were performed at local laboratories and a central laboratory. […] The LDL cholesterol concentration was calculated using the Friedewald equation converted to mmol/liter: […] To assess the comparability of treatment groups, baseline values and demographic characteristics for all randomized patients were summarized for each treatment group by descriptive statistics. The primary efficacy variables were the serum lipids analyzed at local laboratories at weeks 0, 6, 13 and 26. All values were transformed to natural logarithms for the analysis. Geometric means were used to summarize lipid values by treatment group at each visit. Treatment groups were compared by analysis of covariance of change from baseline in transformed values with baseline as a covariate.

[2] = tested on: patients with primary hypercholesterolemia and ≧2 additional risk factors for coronary artery disease; details: for Sudden cardiac death, number / Myocardial infarction (fatal and nonfatal), number: n = 530; for Myocardial infarction (fatal and nonfatal), number: p = 0.031 vs placebo
Method: This example describes a large multinational study, “Effects of Pravastatin in Patients with Serum Total Cholesterol Levels from 5.2 to 7.8 mmol/liter (200 to 300 mg/dl) Plus Two Additional Atherosclerotic Risk Factors,” The Pravastatin Multinational Study Group for Cardiac Risk Patients, reported in Am. J. Cardiology Vol. 72, Nov. 1, 1993, 1031-1036. The study was designed to examine the efficacy and safety of pravastatin, together with diet modification and advice on smoking, in patients with primary hypercholesterolemia and ≧2 additional risk factors for coronary artery disease (CAD).
(§1) The efficacy and long-term safety of pravastatin in hypercholesterolemic patients were investigated in this multicenter, randomized, double-blind placebo-controlled trial. After dietary stabilization and recommendations for lifestyle modification during a 6-week placebo lead-in period, patients were randomized to receive pravastatin 20 mg or placebo at bedtime. After 13 weeks, patients who responded (defined as a decrease in total cholesterol level by >15% from baseline or to <5.2 mmol/liter [200 mg/dl]) to treatment continued on the same study medication for 13 additional weeks. […] Compliance with dietary instructions and other lifestyle counseling were periodically assessed. After completing the initial 26-week period, patients were given the option to continue in an additional 26-week double-blind phase and, following the first 52 weeks, a final 26-week period that was open-label for pravastatin in patients originally assigned to that treatment group. Additional lipid-lowering medications, except other 3-hydroxy-3-methylglutaryl coenzyme A reductase inhibitors and fibrates, could be added to patients not meeting treatment goals at the end of the first 26 weeks. Fibrates could be added in the open-label period of the study in patients originally assigned placebo.
The protocol was approved by each local ethics committee, and patients gave informed consent before randomization. The study population was to be limited to men and postmenopausal or surgically sterile women 20 to 69 years old. At entry, patients were to have a serum total cholesterol concentration between 5.2 and 7.8 mmol/liter (200 and 300 mg/dl) despite dietary intervention as well as ≧2 additional risk factors for CAD as defined in the protocol (male gender, systemic hypertension, cigarette smoking, family history of CAD, prior myocardial infarction, or history of angina pectoris). Exclusion criteria included (1) a history of homozygous familial hypercholesterolemia; (2) types I, III, IV or V hyperlipoproteinemia; (3) significant metabolic, renal, hepatic or endocrine disease; (4) history of drug abuse; or (5) obesity (>40% above ideal body weight). Patients were also excluded if, within 8 weeks of randomization, they were taking cortico-steroids immunosuppressive drugs, investigational drugs, androgens, or estrogens and progestins for indications other than replacement therapy.
(§2) After ≧4 weeks of dietary stabilization, 2 qualifying blood samples for the lipid profile were drawn approximately 1 week apart after an overnight fast of ≧10 hours. Seated systolic and diastolic blood pressures were recorded at 2 weeks and 1 week before randomization; other risk factors were assessed 1 week before randomization. Baseline lipid and laboratory safety tests, blood pressure and body weight measurements, and an ophthalmologic evaluation (including visual acuity and determination of lenticular opacities) were performed at randomizations. The presence of concurrent disease and the use of concomitant medications were also recorded. When patients returned for clinic visits at weeks 6, 13 and 26, body weight and blood pressure were measured, morning samples for lipid profiles and laboratory safety tests were drawn, and clinical adverse events and concomitant medications were recorded. Drug compliance (by tablet count) was assessed and the ophthalmologic evaluation was repeated at weeks 13 and 26.

[3] = tested on: patients with primary hypercholesterolemia and ≧2 additional risk factors for coronary artery disease; details: in vivo
Method: as §1, §2
Laboratory safety tests were performed by local laboratories and consisted of hematology (hemoglobin, red blood cell count, hematocrit, platelet count, and white blood cell count and differential) and blood chemistries (urea, creatinine, uric acid, calcium, total bilirubin, alkaline phosphatase, aspartate aminotransferase, alanine aminotransferase, γ-glutamyl aminotransferase, total protein, albumin and creatine kinase).
The incidence of adverse events in each treatment group was summarized by body system and individual events. In addition, events predefined by the protocol to be serious, e.g., fatal events or events leading to or prolonging hospitalization, were tabulated. Hematology and biochemistry variables were summarized and analyzed by geometric means and analysis of covariance of change from baseline. Ophthalmologic results were summarized in terms of the number of lenticular opacities present at baseline and at weeks 13 and 26. […] Differences in the incidence of adverse events were typically analyzed by the chi-square test with the Fisher's exact test used for rare events. Results were reported as statistically significant if a 2-sided p value ≦0.05 was attained.

[4] = tested on: patients with primary hypercholesterolemia and ≧2 additional risk factors for coronary artery disease; details: Pearson et al. commentary, cited from earlier work
[5] = baseline to Week 26, p<0.001 vs placebo
[6] = end of initial 26 weeks, 20 to 40 mg once daily (average dose 26.5 mg)
[7] = week 13, 20 mg at bedtime, p<0.001 compared with placebo
[8] = first 26 weeks, listed as Pravastatin

CC[C@H](C)C(=O)O[C@H]1C[C@H](O)C=C2C=C[C@H](C)[C@H](CC[C@@H](O)C[C@@H](O)CC(=O)O)[C@H]21 [pravastatin]
LDL cholesterol, Mean ± SEM ([1]; Baseline, n=499): 4.69 ± 1.05 mmol/L | HDL cholesterol, Mean ± SEM ([1]; Baseline, n=500): 1.14 ± 0.35 mmol/L | Triglycerides, Mean ± SEM ([1]; Baseline, n=520): 1.77 ± 0.82 mmol/L | Total cholesterol, Mean ± SEM ([1]; Baseline, n=521): 6.81 ± 0.78 mmol/L | HDL cholesterol, Mean ± SEM ([1]; Week 26, n=459): 1.23 ± 0.37 mmol/L | LDL cholesterol, Mean ± SEM ([1]; Week 26, n=459): 3.47 ± 0.74 mmol/L | Total cholesterol, Mean ± SEM ([1]; Week 26, n=483): 5.55 ± 0.82 mmol/L | Triglycerides, Mean ± SEM ([1]; Week 26, n=483): 1.56 ± 0.74 mmol/L | LDL cholesterol, % Change [1, 5]: −26.01% | Total cholesterol, % Change [1, 5]: −18.50% | Triglycerides, % Change [1, 5]: −11.86% | HDL cholesterol, % Change ([1]; baseline to Week 26, p<0.005 vs placebo): 7.90% | increase in HDL cholesterol concentrations [1, 6]: 8% | reduction in LDL cholesterol [1, 6]: 26% | reduction in total cholesterol [1, 6]: 19% | reduction in triglycerides [1, 6]: 12% | elevation in HDL cholesterol [1, 7]: 7% | reduction in LDL cholesterol [1, 7]: 26% | reduction in total cholesterol [1, 7]: 19% | reduction in triglycerides [1, 7]: 12% | patients who achieved the target cholesterol goal ([1]; week 13, goal: total cholesterol decrease >15% from baseline or to <5.2 mmol/liter): 66% | number of patients who achieved the target cholesterol goal ([1]; week 13, of 491 patients): 326 | patients who attained an LDL cholesterol concentration of ≦3.4 mmol/liter (130 mg/dl) ([1]; week 26): 47% | changes in visual acuity (without correction) and incidence of new ocular opacities ([2]; both, human, in vivo): limited and similar in the 2 treatment groups | Acute congestive heart failure, number ([2]; both, human, in vivo, 26 weeks): 1 | Central nervous system serious adverse events, Subtotal ([2]; both, human, in vivo, 26 weeks): 0 | Cerebral infarction, number ([2]; both, human, in vivo, 26 weeks): 0 | Other serious adverse events, Subtotal ([2]; both, human, in vivo, 26 weeks): 4 | Other serious adverse events: Diabetes, number ([2]; both, human, in vivo, 26 weeks): 1 | Other serious adverse events: Gastrointestinal, number ([2]; both, human, in vivo, 26 weeks): 2 | Other serious adverse events: Peripheral arterial disease, number ([2]; both, human, in vivo, 26 weeks): 1 | Other serious adverse events: Pulmonary, number ([2]; both, human, in vivo, 26 weeks): 0 | Serious cardiovascular adverse events ([2]; both, human, in vivo, 26 weeks): 0.2% | Serious cardiovascular adverse events (Subtotal), number ([2]; both, human, in vivo, 26 weeks): 1 | Surgery serious adverse events, Subtotal ([2]; both, human, in vivo, 26 weeks): 1 | Surgery: Abdominal (hernia), number ([2]; both, human, in vivo, 26 weeks): 0 | Surgery: Breast, number ([2]; both, human, in vivo, 26 weeks): 0 | Surgery: Coronary artery bypass graft, number ([2]; both, human, in vivo, 26 weeks): 0 | Surgery: Joint (knee), number ([2]; both, human, in vivo, 26 weeks): 1 | Syncope, number ([2]; both, human, in vivo, 26 weeks): 0 | Total of all serious adverse events, number of events ([2]; both, human, in vivo, 26 weeks): 6 | Transient ischemic attack, number ([2]; both, human, in vivo, 26 weeks): 0 | Unstable angina leading to hospitalization, number ([2]; both, human, in vivo, 26 weeks): 0 | cardiovascular clinical adverse events ([2]; both, human, in vivo, 26 weeks): 2.8% | cardiovascular clinical adverse events, number ([2]; both, human, in vivo, 26 weeks): 15 | patients reporting adverse events ([2]; both, human, in vivo, 26 weeks): 22.6% | patients reporting adverse events, number ([2]; both, human, in vivo, 26 weeks): 120 | patients with serious adverse events ([2]; both, human, in vivo, 26 weeks): 0.9% | patients with serious adverse events, number ([2]; both, human, in vivo, 26 weeks): 5 | patients withdrawn from the study because of an adverse event ([2]; both, human, in vivo, 26 weeks): 4.7% | adverse events thought to be related to pravastatin administration, number ([2]; both, human, in vivo, 52 weeks): 1 | cases of unstable angina, number ([2]; both, human, in vivo, 52 weeks): 1 | patients reporting clinical adverse events ([2]; both, human, in vivo, 52 weeks): 18.5% | patients reporting clinical adverse events, number ([2]; both, human, in vivo, 52 weeks): 55 | patients who withdrew because of adverse events ([2]; both, human, in vivo, 52 weeks): 1.7% | episodes of unstable angina, number ([2]; both, human, in vivo, 78 weeks): 1 | myocardial infarctions, number ([2]; both, human, in vivo, 78 weeks): 1 | Sudden cardiac death, number ([2]; first 26 weeks): none | Sudden cardiac death, number [2, 8]: 0 | Myocardial infarction (fatal and nonfatal), number ([2]; first 26 weeks): no patient and none | Myocardial infarction (fatal and nonfatal), number [2, 8]: 0 | deaths ([2]; first 26 weeks, three placebo-treated patients died): no pravastatin-treated patient died | Total of all serious adverse events, number of events ([2]; human, in vivo): Six | patients who sustained myocardial infarctions, number ([2]; human, in vivo): One | patients who withdrew because of adverse events, number ([2]; human, in vivo): Five | patients withdrawn because of angioedema thought to be possibly related to drug therapy, number ([2]; human, in vivo): One | patients withdrawn because of creatine kinase elevation or musculoskeletal events, number ([2]; human, in vivo): Three | patients withdrawn from the study because of an adverse event, number ([2]; human, in vivo): Twenty-five | serious cerebrovascular events ([2]; human, in vivo): none | total incidence of clinical adverse events, pravastatin vs placebo ([2]; human, in vivo): no differences | deaths ([2]; long-term portion of the trial): no deaths | patients with elevations of creatine kinase values to >4 times pretreatment values ([3]; both, human): 2.6% | patients with elevations of creatine kinase values to >4 times pretreatment values, number ([3]; both, human): 14 | patients with transient, asymptomatic elevations of hepatic transaminases to >3 times the upper limit of normal ([3]; both, human): 1.1% | patients with transient, asymptomatic elevations of hepatic transaminases to >3 times the upper limit of normal, number ([3]; both, human): 6 | magnitude of the increases in alanine aminotransferase, aspartate aminotransferase and creatine kinase [3]: 3-12% | mean level of alanine aminotransferase [3]: 16.02 U/liter | mean level of aspartate aminotransferase [3]: 17.24 U/liter | mean level of creatine kinase [3]: 70.62 U/liter | syndrome of drug-induced myopathy (myalgia with creatine kinase >10 times upper limits of normal) [3]: not observed in any patient | medical and surgical events in the coronary and cerebrovascular beds, number ([4]; first 26 weeks, 21 in the placebo group): 1 | cases of myocardial infarction or unstable angina, number ([4]; over the 78 weeks of the study, 16 in the placebo group): 2
